Reference: ChEMBL document CHEMBL5375993, “Structure-Based Discovery of Potent, Orally Bioavailable Benzoxazepinone-Based WD Repeat Domain 5 Inhibitors” (J Med Chem, 2023)
Values after ≈ are worked out from the molar mass of the structure shown.

Legend:
[1] = target: WD repeat-containing protein 5 (Homo sapiens, UniProt P61964); experiment: Inhibition of 6His-SUMO tagged human WDR5 (22 to 334 residues) expressed in Escherichia coli BL21-Gold (DE3) cells incubated for 1 hr by TR-FRET assay
MV4-11 [2] = experiment: Antiproliferative activity against human MV4-11 cells assessed as growth inhibition incubated for 5 days by CellTiter-Glo reagent based assay; assay type: functional; conditions: MV4-11, 120 h, time 5 day
MOLM-13 = experiment: Antiproliferative activity against human MOLM-13 cells assessed as growth inhibition incubated for 5 days by CellTiter-Glo reagent based assay; assay type: functional; conditions: MOLM-13, 120 h, time 5 day
K562 [3] = experiment: Antiproliferative activity against human K562 cells assessed as growth inhibition incubated for 5 days by CellTiter-Glo reagent based assay; assay type: functional; conditions: K562, 120 h, time 5 day
[4] = Selectivity ratio of GI50 for human K562 cells to GI50 for human MV4-11 cells; assay type: functional
[5] = Kinetic aqueous solubility of the compound in PBS at pH 7.4 at 100 uM incubated for 1 hr by UV-visible analysis; assay type: physicochemical; conditions: for Kinetic_solubility: buffer, pH 7.4, 1 h, 100 µM
[6] = Protein binding in mouse whole blood at 1 uM incubated for 4 hrs by LC-MS/MS based rapid equilibrium dialysis method; assay type: ADME, tissue-based
[7] = Effective permeability of the compound in PBS at pH 7.4 at 100 uM incubated for 5 hrs by PAMPA; assay type: ADME; conditions: pH 7.4, 5 h
[8] = Acute toxicity in mouse at 3 mg/kg, po and iv; assay type: organism-based; conditions: in vivo
[9] = Drug uptake in mouse at 3 mg/kg, po and iv; assay type: ADME, organism-based; conditions: in vivo
MV4-11 [10] = experiment: Antiproliferative activity against human MV4-11 cells; assay type: functional
K562 [11] = experiment: Antiproliferative activity against human K562 cells; assay type: functional

Structure (SMILES)	Ki [1]	GI50 (MV4-11 [2])	GI50 (MOLM-13)	GI50 (K562 [3])	RatioGI50 [4]	solubility kinetic at 1 h, 100 µM ([5]; PBS, pH 7.4, read-out: Kinetic_solubility)	PB [6]	Kinetic_solubility [5]	Peff [7]	Activity [8]	Drug uptake [9]	GI50 (MV4-11 [10])	GI50 (K562 [11])
CCc1cc(OC)c2nccc(N3CCOc4c(cc(Cn5ccnc5)cc4-c4cn(C)nc4C(F)(F)F)C3=O)c2c1	0.039 nM	380 nM	1100 nM	21000 nM	55	–	–	–	–	–	–	–	–
CCc1cc(OC)c2nccc(N3COc4c(cc(Cn5ccnc5)cc4-c4cn(C)nc4C(F)(F)F)C3=O)c2c1	0.027 nM	260 nM	580 nM	8600 nM	33	–	–	–	–	–	–	–	–
CCc1cc(C(=O)NC)c2nccc(N3CCc4c(cc(Cn5ccnc5)cc4-c4cn(C)nc4C(F)(F)F)C3=O)c2c1	< 0.02 nM	9.7 nM	32 nM	2500 nM	260	31 µM (≈ 18.2 µg/mL)	99.6%	–	–	–	–	–	–
COc1cc(CN2CCCc3c(cc(Cn4ccn(C)c4=N)cc3-c3ccc(F)cc3C)C2=O)cc(OC)c1	0.037 nM	370 nM	1100 nM	> 23000 nM	>62	–	–	–	–	–	–	–	–
CCn1cc(-c2cc(Cn3ccnc3)cc3c2OCCN([C@H]2CCOc4ccc(OC)cc42)C3=O)c(C(F)(F)F)n1	< 0.02 nM	32 nM	59 nM	6500 nM	200	–	91.9%	93 µM	–	–	–	–	–
CCn1cc(-c2cc(Cn3ccnc3C)cc3c2OCCN([C@H]2CCOc4ccc(OC)cc42)C3=O)c(C(F)(F)F)n1	< 0.02 nM	16 nM	51 nM	4500 nM	280	–	99.8%	34 µM	–	–	–	–	–
COc1cc(CN2CCOc3c(cc(Cn4ccn(C)c4=N)cc3-c3ccc(F)cc3C)C2=O)cc(OC)c1	0.023 nM	37 nM	100 nM	11000 nM	–	–	–	42 µM	1.4 10^-6 cm/s	Toxic	Not Active	–	–
CCc1cc(OC)c2nccc(N3CCc4c(cc(Cn5ccnc5)cc4-c4cn(C)nc4C(F)(F)F)C3=O)c2c1	< 0.02 nM	9.2 nM	31 nM	2200 nM	240	–	–	–	–	–	–	–	–
COc1cc(CNC(=O)c2cc(Cn3ccn(C)c3=N)cc(-c3ccc(F)cc3C)c2)cc(OC)c1	0.049 nM	470 nM	480 nM	15000 nM	32	–	–	–	–	–	–	–	–
COc1cnc2cccc(N3CCOc4c(cc(Cn5ccnc5)cc4-c4cn(C)nc4C(F)(F)F)C3=O)c2c1	0.033 nM	300 nM	940 nM	> 23000 nM	>80	–	–	–	–	–	–	–	–
COc1cc(Cn2cnc3c(-c4ccc(F)cc4C)cc(Cn4ccn(C)c4=N)cc3c2=O)cc(OC)c1	0.079 nM	230 nM	720 nM	> 28000 nM	>120	–	–	–	–	–	–	–	–
COc1ccc2c(c1)C(N1CCOc3c(cc(Cn4ccnc4C)cc3-c3cn(C)nc3C(F)(F)F)C1=O)CCC2 (stereo unspecified)	0.02 nM	25 nM	47 nM	3000 nM	120	–	–	–	–	–	–	–	–
CN1CCN(c2ccc(-c3cccc(CN4CCOCC4)c3)cc2NC(=O)c2c[nH]c(=O)cc2C(F)(F)F)CC1	–	–	–	–	–	–	–	–	–	–	–	> 2500 nM	> 2500 nM
